# Target: T1, delF508-CFTR-HRP (Homo sapiens, UniProt P13569, DEL508-508)
# T1 construct: expressed in transfected cells
# Test: Measurement of delF508-CFTR-HRP surface expression in CFBE41o- cells (HRP luminescence);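 for DelF508-CFTR-HRP Amax %: percent efficacy relative to a reference CFTR corrector compound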
# Format: cell-based
# Settings: for Emax: CFBE41o-, read-out: DelF508-CFTR-HRP Amax %; for EC50: mean of at least two replicates
# In short: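 Stably transfected CFBE41o- cells carrying HRP in the fourth extracellular loop of delF508-CFTR, induced with 500 ng/mL doxycycline for 48 h, then compound-treated 24 h at 37° C (10-point, 3-fold, top 10 μM). Surface HRP detected by luminescent substrate; EC50 from logistic fit, triplicates, normalized to lowest-concentration median.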
# T1 sequence (P13569 with tags, fused parts or gaps DEL508-508): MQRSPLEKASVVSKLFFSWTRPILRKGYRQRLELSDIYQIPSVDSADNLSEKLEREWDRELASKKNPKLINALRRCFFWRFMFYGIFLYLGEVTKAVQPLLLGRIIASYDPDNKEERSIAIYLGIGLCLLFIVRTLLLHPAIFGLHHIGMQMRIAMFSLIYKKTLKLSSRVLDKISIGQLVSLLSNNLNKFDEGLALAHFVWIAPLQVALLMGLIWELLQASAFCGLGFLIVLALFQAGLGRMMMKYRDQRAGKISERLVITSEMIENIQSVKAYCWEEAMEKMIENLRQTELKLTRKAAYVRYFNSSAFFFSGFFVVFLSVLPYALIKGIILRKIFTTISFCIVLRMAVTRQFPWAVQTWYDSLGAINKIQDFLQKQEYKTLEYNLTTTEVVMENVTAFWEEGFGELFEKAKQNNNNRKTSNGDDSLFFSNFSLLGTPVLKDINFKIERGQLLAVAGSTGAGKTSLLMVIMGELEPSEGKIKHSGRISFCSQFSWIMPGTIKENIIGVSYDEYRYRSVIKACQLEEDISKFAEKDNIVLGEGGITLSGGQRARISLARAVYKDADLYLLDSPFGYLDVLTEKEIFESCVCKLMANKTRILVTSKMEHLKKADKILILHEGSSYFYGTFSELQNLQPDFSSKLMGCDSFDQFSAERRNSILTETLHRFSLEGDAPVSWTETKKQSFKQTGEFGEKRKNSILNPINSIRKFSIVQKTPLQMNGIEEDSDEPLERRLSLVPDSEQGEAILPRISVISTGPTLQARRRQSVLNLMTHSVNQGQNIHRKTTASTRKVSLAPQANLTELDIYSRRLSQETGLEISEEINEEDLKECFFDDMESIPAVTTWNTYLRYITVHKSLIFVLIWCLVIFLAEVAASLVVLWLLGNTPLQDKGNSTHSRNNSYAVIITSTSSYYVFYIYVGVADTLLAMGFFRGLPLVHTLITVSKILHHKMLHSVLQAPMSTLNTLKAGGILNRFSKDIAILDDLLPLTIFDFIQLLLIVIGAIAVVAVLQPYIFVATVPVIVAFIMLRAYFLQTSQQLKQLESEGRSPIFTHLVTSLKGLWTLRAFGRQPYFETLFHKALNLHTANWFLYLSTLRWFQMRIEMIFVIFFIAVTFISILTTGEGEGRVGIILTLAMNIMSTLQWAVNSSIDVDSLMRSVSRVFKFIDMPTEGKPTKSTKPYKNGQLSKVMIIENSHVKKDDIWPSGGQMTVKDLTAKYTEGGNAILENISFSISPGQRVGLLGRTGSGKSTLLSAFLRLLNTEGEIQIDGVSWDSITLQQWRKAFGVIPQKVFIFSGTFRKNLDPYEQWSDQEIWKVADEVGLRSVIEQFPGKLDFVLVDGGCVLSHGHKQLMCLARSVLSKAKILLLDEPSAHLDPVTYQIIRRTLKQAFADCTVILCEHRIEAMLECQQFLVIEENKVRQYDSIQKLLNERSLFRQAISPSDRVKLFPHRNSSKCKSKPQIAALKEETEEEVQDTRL
Structure (SMILES),Emax,EC50,DelF508-CFTR-HRP Amax %
"CC(C)(C)OC1CCN(c2ccc(Cl)cc2OC2(C(=O)NS(=O)(=O)c3cccc(N4CC[C@H](O)C4)n3)CC2)C1 (stereo partly drawn) [Example 9-32, 1-(2-(3-(Tert-butoxy)pyrrolidin-1-yl)-5-chlorophenoxy)-N-((6-((S)-3-hydroxypyrrolidin-1-yl)pyridin-2-yl)sulfonyl)cyclopropanecarboxamide]",485%,1180 nM,
"C[C@@]1(O)CCN(c2cccc(S(=O)(=O)NC(=O)C3(Oc4cc(Cl)ccc4C4CC5(CCC5)C4)CC3)n2)C1 (single isomer, unassigned) [Example 7-2-2]",382%,880 nM,
"Cc1ccc(C2CC2C(F)(F)F)c(OC2(C(=O)NS(=O)(=O)c3cccc(N)n3)CC2)c1 (single isomer, unassigned) [Example 1-3-2, N-((6-aminopyridin-2-yl)sulfonyl)-1-(5-methyl-2-(2-(trifluoromethyl)cyclopropyl)phenoxy)cyclopropane-1-carboxamide]",,2990 nM,260%
"O=C(NS(=O)(=O)c1cccc(N2CC[C@H](O)C2)n1)C1(Oc2cc(Cl)ccc2-c2cccc(OC(F)(F)F)c2)CC1 [Example 5-6, (S)-1-((4-Chloro-3′-(trifluoromethoxy)-[1,1′-biphenyl]-2-yl)oxy)-N-((6-(3-hydroxypyrrolidin-1-yl)pyridin-2-yl)sulfonyl)cyclopropane-1-carboxamide]",280%,1770 nM,
"O=C(NS(=O)(=O)c1cccc(N2CC[C@H](O)C2)n1)C1(Oc2cc(Cl)ccc2C2CC3(CCC3)C2)CCCC1 [Example 7-20, (S)-1-(5-Chloro-2-(spiro[3.3]heptan-2-yl)phenoxy)-N-((6-(3-hydroxypyrrolidin-1-yl)pyridin-2-yl)sulfonyl)cyclopentane-1-carboxamide]",280%,540 nM,
"CC1(C)CCN(c2ccc(Cl)cc2OC2(C(=O)NS(=O)(=O)c3cccc(N4CCCC(C)(O)C4)n3)CC2)CC1 (single isomer, unassigned) [Example 9-43-2, 1-(5-Chloro-2-(4,4-dimethylpiperidin-1-yl)phenoxy)-N-((6-(3-hydroxy-3-methylpiperidin-1-yl)pyridin-2-yl)sulfonyl)cyclopropane-1-carboxamide]",,1920 nM,367.4%
"CC1(C)CCN(c2ccc(Cl)cc2OC2(C(=O)NS(=O)(=O)c3cccc(N4CCC5(CC4)OCc4ccccc45)n3)CC2)CC1 [Example 10-8, N-((6-(3H-spiro[isobenzofuran-1,4′-piperidin]-1′-yl)pyridin-2-yl)sulfonyl)-1-(5-chloro-2-(4,4-dimethylpiperidin-1-yl)phenoxy)cyclopropanecarboxamide]",307%,430 nM,
"O=C(NS(=O)(=O)c1cccc(N2CC[C@H](O)C2)n1)C1(Oc2cc(Cl)ccc2N2CC3(CCCCO3)C2)CC1 [Example 9-8, (S)-1-(5-Chloro-2-(5-oxa-2-azaspiro[3.5]nonan-2-yl)phenoxy)-N-((6-(3-hydroxypyrrolidin-1-yl)pyridin-2-yl)sulfonyl)cyclopropanecarboxamide]",204%,4040 nM,
"O=C(NS(=O)(=O)c1cccc(N2CCC(O)(C(F)(F)F)CC2)n1)C1(Oc2cc(Cl)ccc2N2CCC3(CC2)CC3)CC1 [Example 9-31, 1-(5-Chloro-2-(6-azaspiro[2.5]octan-6-yl)phenoxy)-N-((6-(4-hydroxy-4-(trifluoromethyl)piperidin-1-yl)pyridin-2-yl)sulfonyl)cyclopropanecarboxamide]",553%,410 nM,
"Cc1ccc(OC2CCC(C(C)(C)C)CC2)c(OC2(C(=O)NS(=O)(=O)c3cccc(N4CC[C@H](O)C4)n3)CC2)c1 (stereo partly drawn) [Example 6-4, (S)-1-(2-((4-(tert-butyl)cyclohexyl)oxy)-5-methylphenoxy)-N-((6-(3-hydroxypyrrolidin-1-yl)pyridin-2-yl)sulfonyl)cyclopropanecarboxamide]",526%,330 nM,
"Cc1ccc(C2CCC3(CCC3)OC2)c(OC2(C(=O)NS(=O)(=O)c3cccc(N4CCC(C)(O)CC4)n3)CC2)c1 (single isomer, unassigned) [Example 11-4-2, N-((6-(4-hydroxy-4-methylpiperidin-1-yl)pyridin-2-yl)sulfonyl)-1-(5-methyl-2-(5-oxaspiro[3.5]nonan-7-yl)phenoxy)cyclopropane-1-carboxamide]",,2650 nM,242.9%
"COCCN(C)c1cccc(S(=O)(=O)NC(=O)C2(Oc3cc(Cl)ccc3N3CCC(C)(C)CC3)CC2)n1 [Example 10-5, 1-(5-chloro-2-(4,4-dimethylpiperidin-1-yl)phenoxy)-N-((6-((2-methoxyethyl)(methyl)amino)pyridin-2-yl)sulfonyl)cyclopropanecarboxamide]",475%,1020 nM,
"Cc1ccc(OCC(C)C)c(OC2(C(=O)NS(=O)(=O)c3cccc(N4CC[C@H](O)C4)n3)CC2)c1 [Example 6-15, (S)—N-((6-(3-hydroxypyrrolidin-1-yl)pyridin-2-yl)sulfonyl)-1-(2-isobutoxy-5-methylphenoxy)cyclopropanecarboxamide]",215%,2940 nM,
"CC1(C)CCN(c2ccc(Cl)cc2OC2(C(=O)NS(=O)(=O)c3cccc(N4CC[C@](C)(O)C4)n3)CC2)CC1 [Example 10-1, (S)-1-(5-chloro-2-(4,4-dimethylpiperidin-1-yl)phenoxy)-N-((6-(3-hydroxy-3-methylpyrrolidin-1-yl)pyridin-2-yl)sulfonyl)cyclopropanecarboxamide]",547%,530 nM,
"O=C(NS(=O)(=O)c1cccc(N2CC[C@@H](O)C2)n1)C1(Oc2cc(Cl)ccc2C2CC3(CCC3)C2)CC1 [Example 7-19, (R)-1-(5-Chloro-2-(spiro[3.3]heptan-2-yl)phenoxy)-N-((6-(3-hydroxypyrrolidin-1-yl)pyridin-2-yl)sulfonyl)cyclopropane-1-carboxamide]",350%,1050 nM,
"CC1(C)CCN(c2ccc(C(F)(F)F)cc2OC2(C(=O)NS(=O)(=O)c3cccc(N4CC[C@H](O)C4)n3)CC2)CC1 [Example 9-26, (S)-1-(2-(4,4-Dimethylpiperidin-1-yl)-5-(trifluoromethyl)phenoxy)-N-((6-(3-hydroxypyrrolidin-1-yl)pyridin-2-yl)sulfonyl)cyclopropanecarboxamide]",329%,1840 nM,
"O=C(NS(=O)(=O)c1cccc(N2CC[C@H](O)C2)n1)C1(Oc2cc(Cl)ccc2N2CCC3(CC2)CC3)CC1 [Example 9-9, (S)-1-(5-Chloro-2-(6-azaspiro[2.5]octan-6-yl)phenoxy)-N-((6-(3-hydroxypyrrolidin-1-yl)pyridin-2-yl)sulfonyl)cyclopropanecarboxamide]",,1650 nM,
"Cc1ccc(C2CCC(C)(C)OC2)c(OC2(C(=O)NS(=O)(=O)c3cccc(N4CC[C@H](O)C4)n3)CC2)c1 (single isomer, unassigned) [Example 4-24-1]",,3620 nM,295%
"CC1(C)CCN(c2ccc(Cl)cc2OC2(C(=O)NS(=O)(=O)c3cccc(N4CCC(c5ccccn5)CC4)n3)CC2)CC1 [Example 10-3, 1-(5-chloro-2-(4,4-dimethylpiperidin-1-yl)phenoxy)-N-((6-(4-(pyridin-2-yl)piperidin-1-yl)pyridin-2-yl)sulfonyl)cyclopropanecarboxamide]",493%,600 nM,
"CC1(O)CCCN(c2cccc(S(=O)(=O)NC(=O)C3(Oc4cc(Cl)ccc4C4CC5(CCC5)C4)CC3)n2)C1 (single isomer, unassigned) [Example 7-8-1, 1-(5-chloro-2-(spiro[3.3]heptan-2-yl)phenoxy)-N-((6-(3-hydroxy-3-methylpiperidin-1-yl)pyridin-2-yl)sulfonyl)cyclopropanecarboxamide]",,1000 nM,535.5%
"Cc1ccc(OC2CCC(C(C)(C)C)CC2)c(OC2(C(=O)NS(=O)(=O)c3cccc(N4CCC(C)(O)CC4)n3)CC2)c1 (stereo not shown) [Example 6-5, 1-(2-((4-(tert-butyl)cyclohexyl)oxy)-5-methylphenoxy)-N-((6-(4-hydroxy-4-methylpiperidin-1-yl)pyridin-2-yl)sulfonyl)cyclopropanecarboxamide]",519%,370 nM,
"O=C(NS(=O)(=O)c1cccc(N2CC[C@@H](O)C2)n1)C1(Oc2cc(Cl)ccc2N2CC3(CCCCC3)C2)CC1 [Example 9-6, (R)-1-(5-Chloro-2-(2-azaspiro[3.5]nonan-2-yl)phenoxy)-N-((6-(3-hydroxypyrrolidin-1-yl)pyridin-2-yl)sulfonyl)cyclopropanecarboxamide]",388%,910 nM,
"COC(=O)C(C)(C)CN1CCN(c2cccc(S(=O)(=O)NC(=O)C3(Oc4cc(C)ccc4C4CCCCC4)CC3)n2)CC1 [Example 2-38, Methyl 3-(4-(6-(N-(1-(2-cyclohexyl-5-methylphenoxy)cyclopropanecarbonyl)sulfamoyl)pyridin-2-yl)piperazin-1-yl)-2,2-dimethylpropanoate]",293%,360 nM,
"Cc1ccc(C2CCCCC2)c(OC2(C(=O)NS(=O)(=O)c3cccc(N4CCCC(N)C4)n3)CC2)c1 (stereo not shown) [Example 2-13, N-((6-(3-Aminopiperidin-1-yl)pyridin-2-yl)sulfonyl)-1-(2-cyclohexyl-5-methylphenoxy)cyclopropanecarboxamide]",119%,4610 nM,
"Cc1cnc(N2CCC(C)(C)CC2)c(OC2(C(=O)NS(=O)(=O)c3cccc(N4CC[C@H](O)C4)n3)CC2)c1 [Example 10-11, (S)-1-((2-(4,4-dimethylpiperidin-1-yl)-5-methylpyridin-3-yl)oxy)-N-((6-(3-hydroxypyrrolidin-1-yl)pyridin-2-yl)sulfonyl)cyclopropanecarboxamide]",181%,2950 nM,
